The record followed here is US12172983B2, “EGFR inhibitors” (Blueprint Medicines Corporation, priority 2019, dated 2024).

One assay deals with T1, EGFR (L858R T790M C797S) (Homo sapiens, UniProt P00533, C797S/L858R/T790M).
T1 construct: purchased SignalChem E10-122VG
Put plainly: Biochemical EGFR inhibition assay (Caliper mobility shift), EGFR LRTMCS mutant. To be noted: inhibitory activity against EGFR LRTMCS mutant; apparent IC50; read-out: Ext Enz LRTMCS. In outline:
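Each enzyme was allowed to phosphorylate 10–20% of its peptide at 25° C. before EDTA (35 mM) quench. Separated substrate and product peaks were measured by mobility shift, giving apparent IC50 values.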

Assay [1] deals with phosphorylation of EGFR (Tyr1068) in NCI-H1975 cell line that harbors the EGFR L858R T790M mutations. Put plainly: NCI-H1975 pEGFR AlphaLISA assay. The following applies: 4-5 hours incubation, read-out: Ext pEGFR H1975. It is filed as cell-based. In outline: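 NCI-H1975 cells (EGFR L858R/T790M) seeded overnight, then treated with compound for 4-5 h at 37 °C/5% CO2. After lysis, p-EGFR (Tyr1068) quantified by AlphaLISA SureFire Ultra with acceptor then donor beads; IC50 fitted from percent inhibition versus log concentration.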

Where [2] appears, read: Homo sapiens, NCI-H1975, inhibition of phosphorylation of mutant EGFR in NCI-H1975 cells.

Each structure is given as a SMILES string. Like-named read-outs stand apart in the source and are kept apart here.

T1 sequence (P00533 25-1210 T790M/C797S/L858R): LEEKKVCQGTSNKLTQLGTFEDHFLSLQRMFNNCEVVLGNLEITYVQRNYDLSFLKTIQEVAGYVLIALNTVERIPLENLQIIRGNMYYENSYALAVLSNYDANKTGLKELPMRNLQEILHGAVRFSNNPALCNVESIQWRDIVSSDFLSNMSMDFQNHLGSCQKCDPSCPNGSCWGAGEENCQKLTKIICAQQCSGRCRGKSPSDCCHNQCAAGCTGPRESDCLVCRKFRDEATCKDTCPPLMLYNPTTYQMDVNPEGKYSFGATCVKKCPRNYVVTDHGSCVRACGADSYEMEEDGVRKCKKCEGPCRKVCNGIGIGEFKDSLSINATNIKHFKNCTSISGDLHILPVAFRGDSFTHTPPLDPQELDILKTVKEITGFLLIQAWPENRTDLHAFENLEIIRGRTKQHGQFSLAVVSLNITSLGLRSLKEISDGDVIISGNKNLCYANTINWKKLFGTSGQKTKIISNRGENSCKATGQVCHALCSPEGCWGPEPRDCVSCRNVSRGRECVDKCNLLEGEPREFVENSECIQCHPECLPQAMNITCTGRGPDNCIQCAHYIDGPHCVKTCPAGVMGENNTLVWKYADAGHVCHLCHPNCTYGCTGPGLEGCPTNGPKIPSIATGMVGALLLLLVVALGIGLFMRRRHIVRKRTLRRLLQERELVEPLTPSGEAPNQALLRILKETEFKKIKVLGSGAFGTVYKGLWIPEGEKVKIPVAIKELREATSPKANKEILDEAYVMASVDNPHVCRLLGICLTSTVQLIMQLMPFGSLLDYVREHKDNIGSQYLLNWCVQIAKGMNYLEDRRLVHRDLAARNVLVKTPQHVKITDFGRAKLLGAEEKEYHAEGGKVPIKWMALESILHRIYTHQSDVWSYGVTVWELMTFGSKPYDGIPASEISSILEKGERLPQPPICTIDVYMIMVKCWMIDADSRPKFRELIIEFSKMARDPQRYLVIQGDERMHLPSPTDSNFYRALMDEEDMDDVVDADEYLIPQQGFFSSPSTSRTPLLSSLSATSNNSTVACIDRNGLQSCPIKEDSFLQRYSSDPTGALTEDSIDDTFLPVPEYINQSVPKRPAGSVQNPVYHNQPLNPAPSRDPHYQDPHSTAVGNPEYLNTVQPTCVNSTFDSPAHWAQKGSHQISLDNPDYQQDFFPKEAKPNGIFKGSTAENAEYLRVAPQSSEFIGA

Consider `C[C@@H]1[C@@H](CS(C)(=O)=O)CN1c1ccc(F)c2cc(Nc3ccnc(N4CC[C@@H](O)[C@@](C)(F)C4)n3)ncc12` (single isomer, unassigned) [Compound 33], for which the IC50 on EGFR (L858R T790M C797S) was at most 15 nM; in assay [1] (setting [2]) it was at most 10 nM.

Consider `CC(C)c1ccc(N2CC(CS(C)(=O)=O)C2)c2cnc(Nc3ccnc(N4CCC5(CC4)OCCO5)n3)cc12` [Compound 88, N-(2-{1,4-dioxa-8-azaspiro[4.5]decan-8-yl}pyrimidin-4-yl)-8-[3-(methanesulfonylmethyl)azetidin-1-yl]-5-(propan-2-yl)isoquinolin-3-amine], for which the IC50 was at most 15 nM on EGFR (L858R T790M C797S) and 20.1 to 30 nM in assay [1] (setting [2]).

In the case of `C[C@]1(F)CN(c2nccc(Nc3cc4c(C5CC5)ccc(N5CC(CS(C)(=O)=O)C5)c4cn3)n2)CC[C@H]1O` (single isomer, unassigned) [Compound 51], the IC50 at EGFR (L858R T790M C797S) was at most 15 nM; in assay [1] (setting [2]), 20.1 to 30 nM.

`CC(C)c1ccc(N2CC(CS(C)(=O)=O)C2)c2cnc(Nc3ccnc(N4CCC5(CC4)COCCO5)n3)cc12` [Compound 167, N-(2-{1,4-dioxa-9-azaspiro[5,5]undecan-9-yl}pyrimidin-4-yl)-8-[3-(methanesulfonylmethyl)azetidin-1-yl]-5-(propan-2-yl)isoquinolin-3-amine]: the IC50 at EGFR (L858R T790M C797S) was at most 15 nM; in assay [1] (setting [2]), 10.1 to 20 nM.

For the molecule `CC(C)c1cnc(N2C[C@H](CS(C)(=O)=O)[C@H]2C)c2cnc(Nc3ccnc(N4CC[C@@H](OCC(C)(C)O)[C@@H](F)C4)n3)cc12` [Compound 260, 1-{[(3S,4R)-3-fluoro-1-[4-({8-[(2R,3S)-3-(methanesulfonylmethyl)-2-methylazetidin-1-yl]-5-(propan-2-yl)-2,7-naphthyridin-3-yl}amino)pyrimidin-2-yl]piperidin-4-yl]oxy}-2-methylpropan-2-ol], the IC50 was at most 15 nM at EGFR (L858R T790M C797S) and at most 10 nM in assay [1] (setting [2]).

In the case of `CO[C@@H]1[C@H](F)CN(c2nccc(Nc3cc4c(C(C)C)ccc(N5CC(CS(C)(=O)=O)C5)c4cn3)n2)C[C@@H]1OC` (stereo in doubt) [Compound 201], the IC50 at EGFR (L858R T790M C797S) was 20.1 to 30 nM; in assay [1] (setting [2]), at most 10 nM.

As for `COC1CCN(c2nncc(Nc3cc4c(C(C)C)ccc(N5CC(CS(C)(=O)=O)C5)c4cn3)n2)CC1` [Compound 23, 8-[3-(methanesulfonylmethyl)azetidin-1-yl]-N-[3-(4-methoxypiperidin-1-yl)-1,2,4-triazin-5-yl]-5-(propan-2-yl)isoquinolin-3-amine], the figures for the IC50 (at EGFR (L858R T790M C797S); in assay [1] (setting [2])) were at most 15 nM and 10.1 to 20 nM, respectively.

For `CCS(=O)(=O)CC1CN(c2cccc3cc(Nc4ccnc(N5C[C@H](F)[C@H](O)C(C)(C)C5)n4)ncc23)C1` (single isomer, unassigned) [Compound 27, (4S,5R)-1-{4-[(8-{3-[(ethanesulfonyl)methyl]azetidin-1-yl}isoquinolin-3-yl)amino]pyrimidin-2-yl}-5-fluoro-3,3-dimethylpiperidin-4-ol or (4R,5S)-1-{4-[(8-{3-[(ethanesulfonyl)methyl]azetidin-1-yl}isoquinolin-3-yl)amino]pyrimidin-2-yl}-5-fluoro-3,3-dimethylpiperidin-4-ol], the IC50 on EGFR (L858R T790M C797S) is at most 15 nM; in assay [1] (setting [2]), 10.1 to 20 nM.

As to `[2H]C([2H])([2H])O[C@H]1CCN(c2nccc(Nc3cc4c(C(C)C)cnc(N5C[C@H](CS(C)(=O)=O)[C@H]5C)c4cn3)n2)C[C@H]1F` (single isomer, unassigned) [Compound 285], the IC50 on EGFR (L858R T790M C797S) is at most 15 nM; in assay [1] (setting [2]) it was at most 10 nM.

`CO[C@@H]1CCN(c2nccc(Nc3cc4c(C(C)C)ncc(N5C[C@H](CS(C)(=O)=O)[C@H]5C)c4cn3)n2)C[C@@H]1F` [Compound 139, N-{2-[(3S,4R)-3-fluoro-4-methoxypiperidin-1-yl]pyrimidin-4-yl}-8-[(2R,3S)-3-(methanesulfonylmethyl)-2-methylazetidin-1-yl]-5-(propan-2-yl)-2,6-naphthyridin-3-amine]: the IC50 was at most 15 nM at EGFR (L858R T790M C797S) and at most 10 nM in assay [1] (setting [2]).

For `C[C@@H]1[C@@H](CS(C)(=O)=O)CN1c1ccc(F)c2cc(Nc3ccnc(N4C[C@H](F)[C@H](O)C(C)(C)C4)n3)ncc12` (single isomer, unassigned) [Compound 83, (4S,5R)-5-fluoro-1-[4-({5-fluoro-8-[(2R,3S)-3-(methanesulfonylmethyl)-2-methylazetidin-1-yl]isoquinolin-3-yl}amino)pyrimidin-2-yl]-3,3-dimethylpiperidin-4-ol or (4R,5S)-5-fluoro-1-[4-({5-fluoro-8-[(2R,3S)-3-(methanesulfonylmethyl)-2-methylazetidin-1-yl]isoquinolin-3-yl}amino)pyrimidin-2-yl]-3,3-dimethylpiperidin-4-ol], the IC50 was at most 15 nM at EGFR (L858R T790M C797S) and at most 10 nM in assay [1] (setting [2]).

As for `CC(C)c1ccc(N2C[C@@H](CS(C)(=O)=O)[C@@H]2C)c2cnc(Nc3ccnc(N4C[C@@H](F)[C@@H](O)C(C)(C)C4)n3)cc12` (single isomer, unassigned) [Compound 183, (4S,5R)-5-fluoro-1-[4-({8-[(2S,3R)-3-(methanesulfonylmethyl)-2-methylazetidin-1-yl]-5-(propan-2-yl)isoquinolin-3-yl}amino)pyrimidin-2-yl]-3,3-dimethylpiperidin-4-ol or (4R,5S)-5-fluoro-1-[4-({8-[(2S,3R)-3-(methanesulfonylmethyl)-2-methylazetidin-1-yl]-5-(propan-2-yl)isoquinolin-3-yl}amino)pyrimidin-2-yl]-3,3-dimethylpiperidin-4-ol], the IC50 was 15.1 to 20 nM at EGFR (L858R T790M C797S) and at most 10 nM in assay [1] (setting [2]).

Regarding `CO[C@@H]1CCN(c2nccc(Nc3cc4c(F)ccc(N5C[C@H](CS(C)(=O)=O)[C@H]5C)c4cn3)n2)C[C@@H]1F` [Compound 36, 5-fluoro-N-{2-[(3S,4R)-3-fluoro-4-methoxypiperidin-1-yl]pyrimidin-4-yl}-8-[(2R,3S)-3-(methanesulfonylmethyl)-2-methylazetidin-1-yl]isoquinolin-3-amine], the IC50 is at most 15 nM at EGFR (L858R T790M C797S) and at most 10 nM in assay [1] (setting [2]).

Turning to `CCS(=O)(=O)C[C@H]1CN(c2cnc(C(C)C)c3cc(Nc4ccnc(N5CC[C@@](C)(O)[C@@H](F)C5)n4)ncc23)[C@@H]1C` (single isomer, unassigned) [Compound 194], the IC50 at EGFR (L858R T790M C797S) is at most 15 nM; in assay [1] (setting [2]), at most 10 nM.

In the case of `COc1ccc(N2CC(CS(C)(=O)=O)C2)c2cnc(Nc3ccnc(N4CC[C@@H](O)[C@@](C)(F)C4)n3)cc12` (single isomer, unassigned) [Compound 32], the IC50 on EGFR (L858R T790M C797S) is at most 15 nM; in assay [1] (setting [2]), 20.1 to 30 nM.

On to `CC(C)c1ncc(N2C[C@H](CS(C)(=O)=O)[C@H]2C)c2cnc(Nc3ccnc(N4CC[C@@](C)(O)[C@@H](F)C4)n3)cc12` (single isomer, unassigned) [Compound 138], for which the figures for the IC50 (at EGFR (L858R T790M C797S); in assay [1] (setting [2])) were at most 15 nM and at most 10 nM, respectively.

Turning to `CCS(=O)(=O)C[C@H]1CN(c2ncc(C(C)C)c3cc(Nc4ccnc(N5CC[C@@](C)(O)[C@@H](F)C5)n4)ncc23)[C@@H]1C` (single isomer, unassigned) [Compound 190], the IC50 at EGFR (L858R T790M C797S) was at most 15 nM; in assay [1] (setting [2]) it was at most 10 nM.

On to `CCS(=N)(=O)CC1CN(c2ccc(C(C)C)c3cc(Nc4ccnc(N5CCC(OC)C(F)C5)n4)ncc23)C1` (single isomer, unassigned) [Compound 275, (S)-ethyl({1-[3-({2-[(3R,4S)-3-fluoro-4-methoxypiperidin-1-yl]pyrimidin-4-yl}amino)-5-(propan-2-yl)isoquinolin-8-yl]azetidin-3-yl}methyl)imino-λ^6-sulfanone or (R)-ethyl({1-[3-({2-[(3R,4S)-3-fluoro-4-methoxypiperidin-1-yl]pyrimidin-4-yl}amino)-5-(propan-2-yl)isoquinolin-8-yl]azetidin-3-yl}methyl)imino-λ^6-sulfanone], for which the IC50 on EGFR (L858R T790M C797S) was 15.1 to 20 nM; in assay [1] (inhibition of phosphorylation of mutant EGFR in NCI-H1975 cells), 30.1 to 50 nM.

In the case of `CC(C)c1ccc(N2CC(CS(=O)(=O)CCN(C)C)C2)c2cnc(Nc3ccnc(N4CC[C@@H](O)[C@@](C)(F)C4)n3)cc12` (single isomer, unassigned) [Compound 239], the IC50 on EGFR (L858R T790M C797S) is at most 15 nM; in assay [1] (setting [2]), at most 10 nM.

As for `CC(C)c1ccc(N2C[C@H](CS(C)(=O)=O)[C@H]2C)c2cnc(Nc3ccnc(N4CCC(OCCO)CC4)n3)cc12` [Compound 171, 2-({1-[4-({8-[(2R,3S)-3-(methanesulfonylmethyl)-2-methylazetidin-1-yl]-5-(propan-2-yl)isoquinolin-3-yl}amino)pyrimidin-2-yl]piperidin-4-yl}oxy)ethan-1-ol], the figures for the IC50 (at EGFR (L858R T790M C797S); in assay [1] (setting [2])) were at most 15 nM and at most 10 nM, respectively.

As to `CC(C)c1ccc(N2C[C@H](CS(C)(=O)=O)[C@H]2C)c2cnc(Nc3ccnc(N4CC[C@](C)(O)C(F)(F)C4)n3)cc12` (single isomer, unassigned) [Compound 210, (4S)-3,3-difluoro-1-[4-({8-[(2R,3S)-3-(methanesulfonylmethyl)-2-methylazetidin-1-yl]-5-(propan-2-yl)isoquinolin-3-yl}amino)pyrimidin-2-yl]-4-methylpiperidin-4-ol or (4R)-3,3-difluoro-1-[4-({8-[(2R,3S)-3-(methanesulfonylmethyl)-2-methylazetidin-1-yl]-5-(propan-2-yl)isoquinolin-3-yl}amino)pyrimidin-2-yl]-4-methylpiperidin-4-ol], the values for the IC50 (on EGFR (L858R T790M C797S); in assay [1] (setting [2])) were 20.1 to 30 nM and 10.1 to 20 nM, respectively.
